Our source for the IC50 values is PubChem BioAssay AID489020 (Sanford-Burnham Center for Chemical Genomics, 2010).

Activity calls are given as the source filed them.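 How the source made its calls: active means mean IC50, the dose halving TNF-driven NF-kB light signal, at or below a set limit; inactive means the rest.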 A value given as a limit tells only on which side of the number the result lay.

This assay deals with HEK-293T NF-kB-Luc, TNFa-induced, luminescence, 14 h. In words: inhibitors of TNFa-induced NF-kB reporter, dose response, counter-screen for BCR/TCR NF-kB inhibitor project, cell-based, HEK-293T NF-kB-Luc, luminescence, hits from both screens (AID 489020).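 Further: TNF-alpha stimulus at 0.1 ng/mL added with the seeded cells; selectivity counterscreen for hits from B- and T-cell receptor NF-kB screens.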
Turning to `Nc1nc(F)nc2c1ncn2[C@@H]1O[C@H](CO)[C@@H](O)[C@H]1O`, the 50% inhibitory concentration (IC50) (in general, the midpoint of a concentration-inhibition curve) was 7240 nM.

Take `CCCCCCn1ccc(=N)cc1`: the IC50 was 13100 nM. In the case of `CCOc1ccc(-n2c(-c3ccc(OC)cc3)c[n+]3c2CCCCC3)cc1`, the IC50 was 1060 nM. For the compound `Cn1nccc1C(=O)NC1CCCc2c1cnn2-c1ccccc1F` (centres undefined), the concentration for half-maximal inhibition (IC50) was < 160 nM. For `COc1ccccc1C(=O)Nc1nc2ccccc2[nH]1` the value was 800 nM; for `O=C(CN1C(=O)c2ccccc2S1(=O)=O)c1ccc2c(c1)OCCCO2`, < 160 nM. Under `CC(C)(C)c1ccc(C(=O)N2CCCCCC2=O)cc1` stands 1780 nM. As for `CCCCC[n+]1cccc2c3ccccc3ccc21`, the IC50 is 2130 nM. `CC(C)Cc1cc(C(C)(C)C)ccc1OC(=S)N(C)C`: the IC50 was > 80000 nM (inactive). Regarding `CC(=O)O[C@H]1[C@H]2O[C@]23[C@@H]2CC[C@]4(O)C[C@@H](O)CC[C@]4(C)C2CC[C@]3(C)[C@H]1c1ccc(=O)oc1` (some centres undefined), the half-inhibitory concentration (IC50) is < 160 nM.

Take `O=C(Nc1ccc([N+](=O)[O-])cc1)C(=O)Nc1cccc(C(=O)O)c1`: the IC50 was 4300 nM. For `Cc1cc([N+](=O)[O-])nn1Cc1ccccc1F` the value was > 80000 nM (inactive). As to `CCCCCCCCCn1ccc(=N)cc1`, the IC50 was 510 nM. For `COc1ccc(-c2cc3nc(C)n(N)c(=O)c3s2)cc1` the value was 870 nM; for `Cn1nc(C(C)(C)C)cc1C(=O)NCc1ccc(N2CCCC2=O)cc1`, 2010 nM; for `CC(C)(O)c1[nH]c2ccc(C#N)cc2c1C(C)(C)O`, 65800 nM (inactive).

As for `COc1cccc(NC(=O)Nc2cccc(C(=O)O)c2)c1`, the IC50 is 5440 nM.

Turning to `Cc1cc(Cl)c(S(=O)(=O)N2CCCCCC2)cc1OCC(=O)NC1CCCCC1`, the IC50 was 240 nM. On to `OCCCNc1cc(-c2ccnc(Nc3cccc(Cl)c3)n2)ccn1`, for which the IC50 was 380 nM. For `CC1CCCN(c2ccc([N+](=O)[O-])cc2C(=O)c2ccccc2)C1` (centres undefined) the value was 10100 nM. For the compound `Cc1ccc(NC(=O)COc2ccc(N(C)C(=O)C(C)(C)C)cc2)cc1S(=O)(=O)N1CCCCC1`, the 50% inhibitory concentration (IC50) is 1740 nM. Under `COc1cc2c(cc1OC)[C@@H]1C(=O)c3ccc4c(c3O[C@@H]1CO2)C[C@H](C(C)C)O4` stands < 160 nM.

As for `CCc1ccc(-c2nc(CS(=O)CC(=O)NCc3ccco3)c(C)o2)cc1` (centres undefined), the IC50 is 57900 nM (inactive). For `CCOc1cc(S(=O)(=O)NCc2ccncc2)ccc1Cl`, the half-inhibitory concentration (IC50) was < 160 nM. Consider `Cc1nn(C(C)(C)C)c(C)c1/C=N/OC(=O)Nc1ccc(Cl)cc1`, for which the IC50 was < 160 nM.

For `O=C(Nc1ccc(Cl)cc1)Nc1cccc(C(=O)O)c1`, the IC50 is 10600 nM. Regarding `O=C(CN1C(=O)c2ccccc2S1(=O)=O)c1ccc2c(c1)OCCO2`, the IC50 was 200 nM. Under `OCCCNc1nccc(-c2cc(Nc3cccc(Cl)c3)ncn2)n1` stands 550 nM; under `Cc1cc(N2CCN(c3nc4ccccc4s3)CC2)n2ncnc2n1`, 1260 nM. Turning to `CCCCCCCCCCOC(=O)Cn1c(COc2ccccc2OC)[n+](C)c2ccccc21`, the IC50 was 3080 nM. For the compound `NC1=NC[C@H](Cc2ccc(O)cc2)N1CCCCC1CCCCC1`, the IC50 is 12900 nM. As for `C#CC(=O)N(c1cccc(OC)c1)C(C(=O)NC1CCCC1)c1cccs1` (centres undefined), the IC50 is 2650 nM.

As for `CN(C(=O)OC(C)(C)C)c1ccc(-c2nc3ccccc3s2)cc1`, the concentration for half-maximal inhibition (IC50) is < 160 nM. For the compound `CCCCCn1c(=O)[nH]c2cc(C(=O)N3CCN(Cc4ccc5c(c4)OCO5)CC3)ccc2c1=O`, the IC50 is < 160 nM. Take `C#CC(=O)N(c1cc(OC)ccc1OC)C(C(=O)NC1CCCC1)c1cccs1` (centres undefined): the concentration for half-maximal inhibition (IC50) was 3850 nM. Take `O=C(Nc1cccc(C(=O)O)c1)Nc1ccc2c(c1)OCO2`: the IC50 was 2170 nM. Turning to `CCc1cc2c(Sc3nc4ccccc4s3)ncnc2s1`, the IC50 was 21300 nM (inactive). Turning to `Cc1cc(CSc2ccccc2)ccc1NC(=O)c1ccc(CN2CCOCC2)cc1`, the IC50 was 260 nM. Take `CCCCCCn1c2c(c(=N)c3c1CCC3)CCC2`: the IC50 is 950 nM. As for `CCCCCNC(=O)c1ccc2c(=O)n(CC3CCCO3)c(=O)[nH]c2c1` (centres undefined), the IC50 is > 80000 nM (inactive). As for `C=CCn1c(C)cc(C(=O)CN2C(=O)c3ccccc3S2(=O)=O)c1C`, the 50% inhibitory concentration (IC50) is 170 nM. In the case of `Cc1ccc(-c2csc(NC(=O)C3CCN(S(=O)(=O)c4cccs4)CC3)n2)cc1`, the IC50 was 2140 nM. For the compound `Nc1nc(Cl)nc2c1ncn2[C@H]1C[C@H](O)[C@@H](CO)O1`, the half-maximal inhibitory concentration (IC50) was 18400 nM. For the compound `CC(Nc1ncnc2sccc12)c1ccccc1` (centres undefined), the IC50 was 600 nM. For the compound `CCCCCCCCn1ccc(=N)cc1`, the 50% inhibitory concentration (IC50) was 10800 nM. In the case of `COc1cccc2c1C(=O)c1c(O)c3c(c(O)c1C2=O)C[C@@](O)(C(=O)CO)C[C@@H]3O[C@H]1C[C@H](N)[C@@H](O)[C@H](C)O1`, the IC50 is > 80000 nM (inactive). For `COC(=O)CCn1nnc(-c2ccc(C(C)C)cc2)n1` the value was 270 nM; for `COc1cccc2c1C(CO)N1C(C#N)C3CC(C(=O)O)C(C1C2)N3C` (centres undefined), < 160 nM; for `Cc1ccc(C(=O)Nc2cccc(C(F)(F)F)c2)cc1NC(=O)c1ccno1`, > 80000 nM (inactive). For `C=C1C(O)[C@@H]2O[C@]3(CC[C@H](/C=C/C(C)[C@@H]4CC(C)=CC5(O[C@H](C[C@@](C)(O)C(=O)O)CCC5O)O4)O3)CC[C@H]2O[C@@H]1C(O)CC(C)[C@H]1OC2(CCCCO2)CCC1C` (some centres undefined), the IC50 was 310 nM. Regarding `CCOc1ccc(S(=O)(=O)NCc2ccncc2)cc1`, the concentration for half-maximal inhibition (IC50) was 210 nM. Regarding `N=c1ccn2c(n1)O[C@H]1[C@@H](CO)[C@H](O)O[C@H]12`, the IC50 is > 80000 nM (inactive). On to `Cn1nccc1C(=O)NC1CCCc2c1cnn2-c1ccc(F)cc1F` (centres undefined), for which the 50% inhibitory concentration (IC50) is < 160 nM. As for `COc1ccc(C(=O)Nc2nc3ccccc3s2)c(OC)c1`, the IC50 is 220 nM. Consider `N#CC(c1cccc(Cl)c1)c1ccc2c(C(F)(F)F)cc(C(F)(F)F)nc2n1` (centres undefined), for which the IC50 is > 80000 nM (inactive). As for `O=C(O)CSCC(=O)Nc1ccc(C2CCCCC2)cc1`, the half-maximal inhibitory concentration (IC50) is 470 nM. On to `COc1cc2nc(NC(=O)c3ccccc3)sc(=O)c2cc1OC`, for which the IC50 was > 80000 nM (inactive). `CCOc1ccc(-c2cc(CCCC(=O)Nc3cccc(OC)c3)no2)cc1`: the IC50 was 14000 nM.

On to `C[C@H](NC(=O)c1nc[nH]c1C(=O)N[C@@H](C)C(=O)OCc1ccccc1)C(=O)OCc1ccccc1`, for which the IC50 was > 80000 nM (inactive).
